According to ChEMBL document CHEMBL1201862, “PubChem BioAssay data set” (2004):
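Exposure lasted 48 hours, with cells grown in 96-well plates and compounds tested at five concentrations. Here, GI50 denotes the concentration required for 50% inhibition of growth.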 Activity calls are given as the source filed them. Cut-off read from the data, not from the text of the source: active = GI50 up to about 1.1 µM and inactive = higher.

How the values were obtained:
Assay in all cases: growth of human tumour cells (NCI), 48 h
[1] = tested on: 786-0
[2] = tested on: A498
[3] = tested on: A549
[4] = tested on: ACHN
[5] = tested on: CAKI-1
[6] = tested on: CCRF-CEM
[7] = tested on: COLO 205
[8] = tested on: DU-145
[9] = tested on: EKVX
[10] = tested on: HCC 2998
[11] = tested on: HCT-116
[12] = tested on: HCT-15
[13] = tested on: HL-60
[14] = tested on: HOP-62
[15] = tested on: HOP-92
[16] = tested on: HT-29
[17] = tested on: Hs-578T
[18] = tested on: IGROV-1
[19] = tested on: KM12
[20] = tested on: LOX IMVI
[21] = tested on: M14
[22] = tested on: MCF7
[23] = tested on: MDA-MB-231
[24] = tested on: MDA-MB-435
[25] = tested on: MOLT-4
[26] = tested on: Malme-3M
[27] = tested on: NCI-H23
[28] = tested on: NCI-H460
[29] = tested on: NCI/ADR-RES
[30] = tested on: OVCAR-3
[31] = tested on: OVCAR-4
[32] = tested on: OVCAR-5
[33] = tested on: OVCAR-8
[34] = tested on: PC-3
[35] = tested on: RXF 393
[36] = tested on: SF-268
[37] = tested on: SF-295
[38] = tested on: SF-539
[39] = tested on: SK-MEL-28
[40] = tested on: SK-MEL-2
[41] = tested on: SK-MEL-5
[42] = tested on: SK-OV-3
[43] = tested on: SN12C
[44] = tested on: SNB-19
[45] = tested on: SNB-75
[46] = tested on: SR
[47] = tested on: SW-620
[48] = tested on: T47D
[49] = tested on: TK-10
[50] = tested on: UACC-257
[51] = tested on: UACC-62
[52] = tested on: K562
[53] = tested on: NCI-H522
[54] = tested on: RPMI-8226
[55] = tested on: U-251
[56] = tested on: UO-31
[57] = tested on: BT-549
[58] = tested on: NCI-H226

SMILES: O=C1c2ccccc2NC(=O)C2C1C(c1ccccc1)CC2(O)c1ccccc1 (stereo not given)
- GI50 [1]: 69.5 µM (inactive)
- GI50 [2]: > 100 µM (inactive)
- GI50 [3]: 30 µM (inactive)
- GI50 [4]: 37 µM (inactive)
- GI50 [5]: 78 µM (inactive)
- GI50 [6]: 27.7 µM (inactive)
- GI50 [7]: 17.5 µM (inactive)
- GI50 [8]: > 100 µM (inactive)
- GI50 [9]: > 100 µM (inactive)
- GI50 [10]: 67 µM (inactive)
- GI50 [11]: 16.9 µM (inactive)
- GI50 [12]: 50.5 µM
- GI50 [13]: 53.1 µM (inactive)
- GI50 [14]: 79.1 µM (inactive)
- GI50 [15]: 9.89 µM (inactive)
- GI50 [16]: 26 µM (inactive)
- GI50 [17]: 34.5 µM (inactive)
- GI50 [18]: 52.4 µM (inactive)
- GI50 [19]: 48 µM (inactive)
- GI50 [20]: 43.2 µM (inactive)
- GI50 [21]: 60.5 µM (inactive)
- GI50 [22]: > 100 µM (inactive)
- GI50 [23]: 34.4 µM (inactive)
- GI50 [24]: > 100 µM (inactive)
- GI50 [25]: 15.4 µM (inactive)
- GI50 [26]: > 100 µM (inactive)
- GI50 [27]: 62.7 µM (inactive)
- GI50 [28]: 34.7 µM (inactive)
- GI50 [29]: 31.7 µM (inactive)
- GI50 [30]: 31.6 µM (inactive)
- GI50 [31]: 17.7 µM (inactive)
- GI50 [32]: > 100 µM (inactive)
- GI50 [33]: > 100 µM (inactive)
- GI50 [34]: 18 µM (inactive)
- GI50 [35]: 80.9 µM (inactive)
- GI50 [36]: > 100 µM (inactive)
- GI50 [37]: 43.6 µM (inactive)
- GI50 [38]: > 100 µM (inactive)
- GI50 [39]: > 100 µM (inactive)
- GI50 [40]: 21.9 µM (inactive)
- GI50 [41]: 84.5 µM (inactive)
- GI50 [42]: > 100 µM (inactive)
- GI50 [43]: > 100 µM (inactive)
- GI50 [44]: 35.2 µM (inactive)
- GI50 [45]: 0.0128 µM (active)
- GI50 [46]: 70.3 µM (inactive)
- GI50 [47]: 50.8 µM (inactive)
- GI50 [48]: 49.7 µM (inactive)
- GI50 [49]: 39.3 µM (inactive)
- GI50 [50]: 79.4 µM (inactive)
- GI50 [51]: > 100 µM (inactive)

SMILES: C[n+]1c(-c2ccc(/C=N/NC(=N)N/N=C/c3ccc(-c4cn5cc(Cl)ccc5[n+]4C)cc3)cc2)cn2cc(Cl)ccc21
- GI50 [1]: 73.3 µM (inactive)
- GI50 [3]: > 100 µM (inactive)
- GI50 [4]: > 100 µM (inactive)
- GI50 [6]: > 100 µM (inactive)
- GI50 [7]: > 100 µM (inactive)
- GI50 [9]: > 100 µM (inactive)
- GI50 [10]: > 100 µM (inactive)
- GI50 [11]: > 100 µM (inactive)
- GI50 [12]: > 100 µM
- GI50 [13]: > 100 µM (inactive)
- GI50 [14]: > 100 µM (inactive)
- GI50 [16]: > 100 µM (inactive)
- GI50 [17]: > 100 µM (inactive)
- GI50 [18]: > 100 µM (inactive)
- GI50 [52]: > 100 µM (inactive)
- GI50 [19]: > 100 µM (inactive)
- GI50 [21]: > 100 µM (inactive)
- GI50 [22]: > 100 µM (inactive)
- GI50 [23]: > 100 µM (inactive)
- GI50 [24]: > 100 µM (inactive)
- GI50 [25]: > 100 µM (inactive)
- GI50 [28]: > 100 µM (inactive)
- GI50 [53]: > 100 µM (inactive)
- GI50 [29]: > 100 µM (inactive)
- GI50 [31]: > 100 µM (inactive)
- GI50 [32]: > 100 µM (inactive)
- GI50 [33]: > 100 µM (inactive)
- GI50 [34]: > 100 µM (inactive)
- GI50 [54]: > 100 µM (inactive)
- GI50 [36]: > 100 µM (inactive)
- GI50 [37]: > 100 µM (inactive)
- GI50 [38]: > 100 µM (inactive)
- GI50 [39]: > 100 µM (inactive)
- GI50 [41]: > 100 µM (inactive)
- GI50 [42]: > 100 µM (inactive)
- GI50 [43]: > 100 µM (inactive)
- GI50 [44]: > 100 µM (inactive)
- GI50 [45]: > 100 µM (inactive)
- GI50 [46]: > 100 µM (inactive)
- GI50 [47]: > 100 µM (inactive)
- GI50 [48]: > 100 µM (inactive)
- GI50 [49]: > 100 µM (inactive)
- GI50 [55]: > 100 µM (inactive)
- GI50 [50]: > 100 µM (inactive)
- GI50 [56]: 69.8 µM (inactive)

SMILES: Cc1ccc(S(=O)(=O)Oc2nc3nc4ccccc4nc3nc2OS(=O)(=O)c2ccc(C)cc2)cc1
- GI50 [1]: > 100 µM (inactive)
- GI50 [2]: > 100 µM (inactive)
- GI50 [3]: > 100 µM (inactive)
- GI50 [4]: > 100 µM (inactive)
- GI50 [57]: > 100 µM (inactive)
- GI50 [5]: > 100 µM (inactive)
- GI50 [6]: 5.28 µM (inactive)
- GI50 [7]: > 100 µM (inactive)
- GI50 [8]: > 100 µM (inactive)
- GI50 [9]: 13.6 µM (inactive)
- GI50 [10]: > 100 µM (inactive)
- GI50 [11]: > 100 µM (inactive)
- GI50 [12]: > 100 µM
- GI50 [13]: > 10 µM (inactive)
- GI50 [16]: > 100 µM (inactive)
- GI50 [17]: > 100 µM (inactive)
- GI50 [18]: > 100 µM (inactive)
- GI50 [19]: > 100 µM (inactive)
- GI50 [21]: > 100 µM (inactive)
- GI50 [22]: > 100 µM (inactive)
- GI50 [23]: > 100 µM (inactive)
- GI50 [24]: > 100 µM (inactive)
- GI50 [26]: > 100 µM (inactive)
- GI50 [58]: > 100 µM (inactive)
- GI50 [27]: > 100 µM (inactive)
- GI50 [28]: > 100 µM (inactive)
- GI50 [53]: > 100 µM (inactive)
- GI50 [29]: > 100 µM (inactive)
- GI50 [30]: > 100 µM (inactive)
- GI50 [32]: > 100 µM (inactive)
- GI50 [33]: > 100 µM (inactive)
- GI50 [34]: > 100 µM (inactive)
- GI50 [54]: > 100 µM (inactive)
- GI50 [35]: > 100 µM (inactive)
- GI50 [36]: > 100 µM (inactive)
- GI50 [37]: > 100 µM (inactive)
- GI50 [38]: > 100 µM (inactive)
- GI50 [39]: > 100 µM (inactive)
- GI50 [40]: > 100 µM (inactive)
- GI50 [41]: > 100 µM (inactive)
- GI50 [42]: > 100 µM (inactive)
- GI50 [43]: > 100 µM (inactive)
- GI50 [44]: > 100 µM (inactive)
- GI50 [45]: > 100 µM (inactive)
- GI50 [49]: > 100 µM (inactive)
- GI50 [55]: > 100 µM (inactive)
- GI50 [50]: > 100 µM (inactive)
- GI50 [51]: > 100 µM (inactive)
- GI50 [56]: 53.7 µM (inactive)
